# Patent US12569468B2, “Use of palovarotene in treatment against HBV virus” (YANG SHENG TANG COMPANY, LTD., priority 2020, dated 2026)
# What was measured:
# Format in all cases: cell-based, hepatitis B virus
# HBV [1] = assay: HBcAg immunofluorescence detection in infected HepG2-hNTCP 2B1; conditions: HepG2-hNTCP 2B1 cells after infection; 5 μM, day 6 to day 12
# Protocol: Southern blot experiment was carried out on a 10 cm^2 culture plate. About 5×10^6 HepG2-hNTCP 2B1 cells were plated in each 10 cm^2 culture plate, and medium B was added. After the cells adhered, medium A was used for replacement to perform the induction with Doxycycline during the whole experiment. HBV infection was performed 4 days after the induction with Doxycycline, and the amount of HBV for infection was 1000 MOI. Before infection, HBV was diluted in medium C to obtain HBV solution, and the infection volume was 5 mL. During infection, the cell supernatant was first removed by suction, the HBV solution was added to the cells, the cells were incubated for 24 hours, then the supernatant was collected as the sample of Day 0. Then the cells were washed three times with PBS, and fresh medium A was used for replacement. After that, the supernatant was collected every two days for detection, fresh medium A was used for replacement. […]
# The HBcAg immunofluorescence staining involved in this experiment was performed directly on adherent cells. […] Photographing: Photographing was performed with a high-content confocal microscope (PerkinElmer, Operetta CLS), and the mean fluorescence intensity of green fluorescence was analyzed.
# HBV [2] = assay: Therapeutic effect in high copy replication model HepAD38; conditions: 5 μM
# Source text: HepAD38 is a hepatoma cell line (D genotype) that stably integrates the HBV genome, it expresses HBV under conditions that may be regulated with tetracycline. […] The HepAD38 has a DNA level about 10 times that of HepG2.2.15, and thus is a high-copy HBV in vitro replication cell model (for the construction method of this cell model, please refer to: Ladner S K, Otto M J, Barker C S, et al. Inducible expression of human hepatitis B virus (HBV) in stably transfected hepatoblastoma cells: a novel system for screening potential inhibitors of HBV replication. Antimicrob Agents Chemother. 1997; 41(8):1715-1720.).
# This experiment was carried out in a 24-well culture plate. […] About 4×10^5HepAD38 cells were plated in each well, 500 μL of medium G containing tetracycline hydrochloride (Tetracycline) was added to each well, Day 0 was set 48 h after the cells were plated, and the medium G containing tetracycline hydrochloride (Tetracycline) was removed at the same time, fresh drug-containing medium F was used for replacement, and then fresh drug-containing medium F was used for replacement every two days until the 8th day, and the levels of HBsAg in the cell supernatant and intracellular HBV DNA were detected on the 8th day. For the method for detection, please refer to Example 1.
# HBV [3] = assay: Inhibitory effect on HBV infection in human primary hepatocytes (drug before infection); conditions: 1, 5, 25 μM, treatment before infection, to day 8, p<0.05
# Source text: Primary hepatocytes were isolated from humanized mice transplanted with primary human hepatocytes through perfusion technique (refer to: Foquet, Lander, et al. “Successful engraftment of human hepatocytes in uPA-SCID and FRG® KO mice.” Hepatocyte Transplantation. Humana Press, New York, NY, 2017. 117-130, Wan-Chun Li, et al. “Isolation and Culture of Adult Mouse Hepatocytes.” Mouse Cell Culture. Humana Press, 2010. 185-196.), directly cultured in 24-well plates (Collagen I pre-coated 24-well plates, purchased from Thermo Scientific) after counting (about 5×10^5 primary hepatocytes per well), and medium H was added to maintain hepatocyte morphology (refer to: Xiang, Chengang, et al. “Long-term functional maintenance of primary human hepatocytes in vitro.” Science 364.6438 (2019): 399-402.). After culturing for 24 hours, drug-containing medium H was used to replace the drug-free medium H to perform drug treatment for 24 hours, and then infection was carried out with HBV, and the amount of HBV for infection in each well was 2000 MOI. Before infection, HBV was first diluted in medium I to obtain HBV solution, and the infection volume was 250 μL/well. During infection, the cell supernatant was first removed by suction, the HBV solution was added to the cells, the cells were incubated for 24 hours, then the supernatant was collected as the sample of Day 0. Then the cells were washed 3 times with PBS that was warmed in bath at 37° C., and fresh drug-containing medium H (500 μL per well) was used for replacement, then the supernatant was collected every two days for detection, fresh drug-containing medium H was used for replacement, until the 8th day, all the supernatants and cells were collected for relevant detection. The detection items included HBsAg, HBeAg, HBV DNA, HBV cccDNA, and for the detection method, please refer to Example 1.
compound,measurement,setting,value
CC1(C)CCC(C)(C)c2cc(Cn3cccn3)c(/C=C/c3ccc(C(=O)O)cc3)cc21 [Palovarotene],positive rate of HBcAg (immunofluorescence),HBV [1],significantly reduce the positive rate
same,surface antigen production (HBsAg in cell supernatant),"HBV [2]; day 8, p<0.01",significant inhibitory effect
same,HBV DNA (intracellular),"HBV [2]; day 8, p<0.05",significant inhibitory effect
same,level of HBeAg in the cell supernatant,HBV [3],significantly inhibit
same,level of HBsAg in the cell supernatant,HBV [3],significantly inhibit
same,level of intracellular HBV DNA,HBV [3],significantly inhibit
same,level of intracellular cccDNA,HBV [3],significantly inhibit
